# Source: patent US20190046481A1, “TRANSDERMAL FORMULATIONS FOR DELIVERY OF PROPIONIC AND ACETIC ACID NSAIDS, AND THEIR USE IN THE TREATMENT OF NSAID-RESPONSIVE DISEASES AND CONDITIONS” (DELIVRA INC., priority 2015, published 2019)
# Like-named read-outs stand apart in the source and are kept apart here.
# Legend:
# [1] = in vivo; conditions: for concentration at 7 days / Synovial Fluid drug concentration: dog, in vivo
# Description: Baseline synovial fluid was collected from untreated canine subjects. […] Synovial fluid was collected from stifle or shoulder joints.
# Error bars depicted standard error of the mean.
# [2] = for Serum drug concentration: dog, in vivo
# Description: (§1) 12 dogs with radiographic evidence of osteoarthritis (OA) were utilized to compare the concentration of ibuprofen in both blood and synovial fluid following transdermal delivery of ibuprofen formulated in base formulation and oral delivery in capsules. The 12 dogs were randomly divided into two groups of six subjects; one group received the oral positive treatment control and the other group received the transdermal treatment. The treatment cycle consisted of six days twice daily followed by a period of seven days devoid of treatment. Blood and synovial fluid samples (from both stifles and shoulders) were collected on the last (sixth) day of drug application and on the last (seventh) day of the washout period.
# (§2) Test article: 1.5% (w/w) ibuprofen in base formulation (4); ˜1 g gel per shoulder joint twice daily (i.e. 15 mg ibuprofen per shoulder joint twice daily). Control article: base formulation; ˜1 g gel per shoulder joint twice daily. Positive Control: 30 mg ibuprofen in capsule PO twice daily.
# (§3) Whole blood and synovial fluid samples were collected from the dogs 60 mins post treatment on the 7th day, and additional samples were collected after a 7 day washout. Baseline synovial fluid was collected from untreated canine subjects. Synovial fluid was collected under sedation (medetomidine (0.01 mg/kg) and butorphenol (0.1 mg/kg) IV). The fluid was collected by arthrocentesis into the joint following surgical preparation of the area. Synovial fluid was collected from stifle or shoulder joints.
# [3] = in vivo; conditions: dog
# Description: as §1, §2, §3
# [4] = test system: aged Beagle dogs with radiographic evidence of osteoarthritis; assay: Modified canine brief pain inventory questionnaire in aged dogs with osteoarthritis; type: in vivo; conditions: test day 5; for cumulative pain score compared to baseline: about 1.5 hours after administration
# Procedure: This study used a blinded parallel group design with a total of eighteen (18) aged Beagle dogs greater than six years of age with radiographic evidence of osteoarthritis. The dogs were randomized to three groups of six subjects balanced on baseline pain levels determined using a modified canine brief pain inventory questionnaire in which a technician evaluated levels of pain and functional impairment in a standardized obstacle test over two baseline days. […] Dogs were tested on the modified canine brief pain inventory questionnaire daily over 7 days approximately 1.5 hours following administration of their respective treatments. Over the subsequent five test days, the same treatment doses were administered twice daily (i.e., doubling the daily dose), except that a loading dose was administered in the morning of the first day, which consisted of twice the daily dose level used initially (i.e., triple initial dose on the first day). The technicians assessing pain and function with the questionnaire were blinded to treatment conditions. Twice daily observations were conducted for the duration of the study.
# Transdermal and oral naproxen were evaluated compared to a negative control as described in the Study Design. […] Questionnaire testing occurred approximately 1.5 hours following the morning dose administration of the test compounds. The two most affected joints of each subject were shaved prior to the first day of drug administration in all treatment groups.
# Subjects were assessed on a pain questionnaire once daily on test days. […] Specifically, the ability of each dog to walk, trot, gallop, rear, jump over a low obstacle, climb and descend stairs, jump down from a perch and general activity was evaluated in addition to a subjective evaluation of pain during evaluation of each function. […]
# The data consisted of whole number scored for 13 questions assessing measures of both pain (0-2) and functional impairment (0-4), as well as an overall pain and function question (0-4). A cumulative pain and functional impairment score was calculated from all […] for both the pain and functional impairment measures on a daily basis as applicable. […] Subsequently, difference from the baseline scores were calculated for the fifth test day at each dose and subjected to a similar RMANOVA analysis. […]
# The dogs were randomized to three groups of six subjects based on mean baseline pain levels determined using a modified canine brief pain inventory questionnaire over two baseline days. […] Pain was evaluated using the pain questionnaire, which was administered approximately 1.5 hours following administration of their respective treatments. […] Data from the fifth treatment day at each dose compared to baseline was statistically evaluated.
# [5] = Naproxen quantification in canine sera (LC-MS/MS); type: in vivo, Beagle dogs; conditions: both sexes, Beagle, dog, serum, oral, mean+/−SEM
# Procedure: A 1 mg/mL stock solution of d3-naproxen was prepared in dimethyl sulfoxide. […] A solution of 200 ng/mL of d3-naproxen was prepared by adding 4 μL of 50 μg/mL solution of d3-naproxen to 996 μL methanol/water (70:30) (stock solution B).
# Isocratic chromatographic separation was performed on a Zorbax Eclipse XDB-C18 column (150×4.6 mm I.D., 5 μm particle size, Agilent, Santa Clara, Calif., USA, SN USKH095544) with a XDB-C18 guard column (12.5×4.6 mm I.D., μm particle size, Agilent, Santa Clara, Calif., USA, SN USLE034730) using a mobile phase of acetonitrile/0.02 M NH4OAc (pH=4.00) (70:30) at a flow rate of 0.500 mL/min for 6 min. […] There was a post time of 0.10 min. The column temperature was 40° C. and the autosampler temperature was maintained at 4° C. The sample injection volume was 10 μL. A 4000 Q trap from AB Sciex Instruments equipped with an electrospray ionization (ES1) was used in the negative ion mode with multiple reaction monitoring (MRM) for the quantitative analysis. Nitrogen was used as the collision gas and the curtain gas. […] Analytical data were acquired and quantification processing was performed by using Analyst software.
# Six aged Beagle dogs (>6 years) of both sexes with quantified radiographic evidence of osteoarthritis were used for the study. […]
# [6] = Dose 2 (high dose, twice daily)
concentration at 7 days [1],Synovial Fluid drug concentration ([1]; 60 min),Synovial Fluid drug concentration ([1]; 7 days),concentration at 7 days ([1]; po),"Synovial Fluid drug concentration ([1]; po, 60 min)","Synovial Fluid drug concentration ([1]; po, 7 days)","reduction of drug by a one week washout period ([1]; synovial fluid, oral or transdermal)",Serum drug concentration ([2]; 60 min),Serum drug concentration ([2]; 7 days),"Serum drug concentration ([2]; po, 60 min)","Serum drug concentration ([2]; po, 7 days)","reduction of circulating drug by a one week washout period ([2]; serum, oral or transdermal)",concentration at 7 days [3],concentration at 7 days ([3]; po),"concentration at 60 min ([5]; capsule PO once daily for seven days, 60 minutes post administration)",concentration at 7 days ([5]; seven day washout),Structure (SMILES),"cumulative pain score difference from mean baseline compared to negative control ([4]; Dose 1 (low dose, once daily))","cumulative pain score compared to baseline ([4]; Dose 1 (low dose, once daily))","cumulative pain score difference from mean baseline compared to negative control [4, 6]","cumulative pain score compared to baseline [4, 6]"
58.5 ng/mL,"1,711 (±828) ng/mL",31 (±21)^□ ng/mL,8.5 ng/mL,"2,065 (±1,070) ng/mL",5 (±3)^□ ng/mL,> 95%,"2,904 (±1,212) ng/mL",59 (±38)^□ ng/mL,"15,420 (±3,450) ng/mL",9 (±4)^□ ng/mL,> 95%,58.5 ng/mL,8.5 ng/mL,–,–,CC(C)Cc1ccc(C(C)C(=O)O)cc1 (centres unmarked) [Ibuprofen],–,–,–,–
–,–,–,–,–,–,–,–,–,–,–,–,–,–,102 µg/mL,16200 ng/mL,"COc1ccc2cc([C@H](C)C(=O)O)ccc2c1 [oral naproxen, Naproxen]",reduced pain at only the low dose,significant decrease from baseline,reduced pain at only the low dose,reduced measures of pain at only the low dose
